Source: PubChem BioAssay (NCI)
Where “and” joins values, the source holds several entries; their conditions need not be identical. Equal entries are not always repeated.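 Each compound was tested at five concentrations against cells in 96-well plates for 48 hours. GI50 is the concentration that inhibits growth by half. TGI marks complete inhibition of growth.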

Legend:
Assay in all cases: inhibition of tumour cell growth, NCI panel, 48 h
[1] = system: SNB-19 CNS
[2] = system: OVCAR-4 ovarian
[3] = system: RPMI-8226 leukemia
[4] = system: T-47D breast
[5] = system: HCC-2998 colon
[6] = system: A549 NSCLC
[7] = system: SR leukemia
[8] = system: UO-31 renal
[9] = system: SK-MEL-5 melanoma
[10] = system: HOP-92 NSCLC

| Structure (SMILES) | GI50 [1] [µM] | TGI [1] | GI50 [2] [µM] | TGI [2] | GI50 [3] [µM] | TGI [3] | GI50 [4] [µM] | TGI [4] [µM] | GI50 [5] [µM] | TGI [5] [µM] | GI50 [6] [µM] | TGI [6] | GI50 [7] [µM] | TGI [7] [µM] | GI50 [8] [µM] | TGI [8] [µM] | GI50 [9] [µM] | TGI [9] | GI50 [10] [µM] | TGI [10] [µM] |
| --- | --- | --- | --- | --- | --- | --- | --- | --- | --- | --- | --- | --- | --- | --- | --- | --- | --- | --- | --- | --- |
| C[n+]1c(/C=C\c2ccc(Cl)cc2)ccc2ccccc21 | 4.49 | > 100 µM | 12 | > 100 µM | 14.4 | > 100 µM | 21.8 | > 100 | 31.6 | > 100 | 1.04 | > 100 µM | 45.8 | > 100 | 72.5 | > 100 | 5.56 | 18 µM |  |  |
| O=c1cccccc1NCCOCCNc1cccccc1=O |  | > 100 µM |  | > 100 µM |  | > 100 µM |  |  |  | > 100 |  | > 100 µM |  |  |  | > 100 |  | > 100 µM |  |  |
| O=c1/c(=C/c2cccc([N+](=O)[O-])c2)sc2nc3ccccc3n12 |  |  |  | > 100 µM |  |  |  |  |  | > 100 |  |  |  |  |  | > 100 |  |  |  |  |
| Cc1nc(Cl)nc(Cl)c1C |  | > 100 µM |  | > 100 µM |  | > 100 µM |  |  |  | > 100 |  | > 100 µM |  | > 100 |  | > 100 |  | > 100 µM |  |  |
| CCC[CH2][Sn]1([CH2]CCC)[O]C(=O)c2cc(I)cc(I)c2[O]1 | 1.27 | 2.55 µM | 1.41 | 2.83 µM | 0.238 | 1.16 µM |  |  | 1.37 | 2.7 | 2.72 | 8.41 µM | 0.279 | 1.7 | 1.49 | 2.82 | 1.54 | 2.88 µM | 1.4 | 2.93 |
| COC(=O)C1=C2CCC(=O)[C@@]2(C)C(OC(C)=O)C=CC1 (stereo partly specified) |  |  |  | > 100 µM |  | > 100 µM |  |  |  | > 100 |  | > 100 µM |  |  |  | > 100 |  | > 100 µM |  |  |
| C/C=C(\C)C(=O)N[C@H]1CC[C@]2(C)C3CC[C@@]4(C)C(CC[C@@H]4C(C)N(C)C)C3CCC2[C@H]1OC(C)=O (stereo partly specified) | 2.1 | 4.13 µM | 2.43 | 14.6 µM | 1.62 | 4.68 µM | 1.74 | 5.42 | 1.56 | 2.97 | 2.07 | 4.69 µM |  |  | 1.24 | 2.54 | 1.05 | 2.3 µM | 1.24 | 3.47 |
| Oc1ccccc1-c1nn(CNc2cccc(Cl)c2)c(=S)o1 | > 100 | > 100 µM |  |  | 15.3 | 38.5 µM | 28.7 | > 100 |  |  | 74.8 | > 100 µM | 15.1 | 49.4 | > 100 | > 100 | 89.2 | > 100 µM | 1.86 | 31.7 |
| Cc1[nH]c2ccccc2c1C1Cc2ccccc2N1C(=O)/C=C/C=C/c1ccccc1 (stereo unspecified) |  | > 100 µM |  | > 100 µM |  | > 100 µM |  |  |  | > 100 |  | > 100 µM |  | > 100 |  | > 100 |  | > 100 µM |  | > 100 |
| CS(=O)(=O)NNS(=O)(=O)c1cccc([N+](=O)[O-])c1 |  | > 100 µM |  | > 100 µM |  | > 100 µM |  |  |  | > 100 |  | > 100 µM |  | > 100 |  | > 100 |  | > 100 µM |  |  |
| CC1(C)COC(C23C4C5C2C2C3C4C52I)=N1 (stereo unspecified) |  | > 100 µM |  | > 100 µM |  | > 100 µM |  |  |  | > 100 |  | > 100 µM |  |  |  | > 100 |  | > 100 µM |  | > 100 |
| COc1ccc(C(=O)OCC2OC(n3cnc4c(=S)nc[nH]c43)C(OC(=O)c3ccc(OC)cc3)C2OC(=O)c2ccc(OC)cc2)cc1 (stereo unspecified) |  | > 100 µM |  | > 100 µM |  | > 100 µM |  |  |  | > 100 |  | > 100 µM |  | > 100 |  | > 100 |  | > 100 µM |  | > 100 |
| [O-]c1c2c(nn1-c1ccccc1)c1ccccc1c[n+]2Cc1ccccc1 |  | > 100 µM |  | > 100 µM |  | > 100 µM |  |  |  | > 100 |  | > 100 µM |  | > 100 |  | > 100 |  | > 100 µM |  | > 100 |
| Cc1cc2c(cc1Cl)SC1=CC(=O)N(c3ccccc3)C1=NS2(=O)=O | 54.5 | > 100 µM | 65.3 | > 100 µM | 14.4 | 36.5 µM | 13 | 65.1 |  |  | > 100 | > 100 µM |  |  | 54 | > 100 |  | 10.8 µM | 34.3 | > 100 |
| CC1CC2(C)ON=C(c3ccccc3)N2c2ccccc2S1 (stereo unspecified) | 53.9 |  | 88 |  | 20.4 | 69.2 µM | 58.5 |  |  |  | 34.3 |  | 34.6 |  | 28.1 |  | 16.9 | 32.1 µM |  |  |
| COc1ccc2nc(-c3cc(-c4cc(OC)c(OC)c(OC)c4)n[nH]3)[nH]c2c1 | 2.98 | 14.1 µM | 1.24 | 4.81 µM | 0.643 | 2.53 µM | 0.346 | 1.92 | 3.03 | 10.6 | 1.63 | 5.25 µM | 1.74 | 8.38 | 1.57 | 4.11 | 0.462 | 1.77 µM |  |  |
| CCCCCCCCCCCCCC(=O)O[C@H]1CC[C@H](NC(=O)[C@H](OC)[C@H](O)[C@@H](O)[C@H](O)/C=C/C(C)C)C(=O)NC1 |  | 51.2 µM and 25.9 µM | 0.00276 | 29 µM and 31.3 µM |  | 11.6 µM and 10.2 µM |  | > 100 |  |  |  | 7.34 µM and 13.8 µM | < 0.001 | 9.3 | 0.00883 | 22 |  | 1.37 µM and 0.25 µM | 0.554 | 4.12 |
| CC(=O)OC(/C=C1/C=CC(=O)O1)COC(=O)c1ccccc1 (stereo unspecified) |  | > 31.2 µM |  | > 31.2 µM |  | > 31.2 µM |  |  |  | > 31.2 |  | > 31.2 µM |  |  |  | > 31.2 |  | > 31.2 µM |  | > 31.2 |
